# Biological target: T1, glutaminase (GAC) (Homo sapiens, UniProt O94925)
# T1 sequence (O94925 55-598 isoform O94925-3 limits assumed): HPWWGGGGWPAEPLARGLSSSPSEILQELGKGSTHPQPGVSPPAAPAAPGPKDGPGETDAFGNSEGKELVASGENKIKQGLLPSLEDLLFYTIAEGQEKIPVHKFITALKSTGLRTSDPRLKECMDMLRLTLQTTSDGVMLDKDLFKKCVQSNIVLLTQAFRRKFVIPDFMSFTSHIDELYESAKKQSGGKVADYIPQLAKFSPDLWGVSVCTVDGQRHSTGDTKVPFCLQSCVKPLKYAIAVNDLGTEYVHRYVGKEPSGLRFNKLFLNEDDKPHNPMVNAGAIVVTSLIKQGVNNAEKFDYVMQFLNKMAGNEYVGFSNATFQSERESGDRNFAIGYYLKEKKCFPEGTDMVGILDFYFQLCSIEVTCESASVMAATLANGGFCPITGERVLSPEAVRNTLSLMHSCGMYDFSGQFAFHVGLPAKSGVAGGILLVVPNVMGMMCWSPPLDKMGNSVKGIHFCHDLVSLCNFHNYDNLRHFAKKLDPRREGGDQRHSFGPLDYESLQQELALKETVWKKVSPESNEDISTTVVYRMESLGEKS
# Test: glutaminase coupled endpoint assay (Example A)
# Assay type: biochemical
# Conditions: inhibition of glutaminase; IC50 tested in an assay of Example A or Example B
# Description: In this example, the enzymatic activity of glutaminase is measured through a coupled endpoint assay. […] The glutamate produced is converted to 2-OG by a kinetic excess of glutamate dehydrogenase. […] However, a kinetic excess of the third coupling enzyme, diaphorase, recycles NAD from NADH to keep the NAD concentration constant during the timecourse of the assay. Diaphorase, also supplied in kinetic excess, oxidizes NADH produced by GDH back to NAD with the concomitant reduction of rezasurin to the highly fluorescent resorufin. […] A reduction in the signal indicates inhibition of some component of the coupled enzyme system. Prospective hits are counterscreened against GDH/diaphorase alone to remove hits to the coupling enzyme system in a second assay.
# 2. […] Add 1 μl a compound in 100% DMSO 2. Add 40 μl of Enzyme Mix and incubate for 60 minute at room temperature 3. Add 10 μl of Substrate Mix to start reaction 4.
row,SMILES,IC50 [nM]
1,"COc1ccccc1CC(=O)Nc1nnc(CCCCc2nnc(NC(=O)Cc3ccccc3OC)s2)s1 [Compound 132, N,N′-(5,5′-(butane-1,4-diyl)bis(1,3,4-thiadiazole-5,2-diyl))bis(2-(2-methoxyphenyl)acetamide)]",< 100
2,O=C(Cc1cccc(C(F)(F)F)c1F)Nc1nnc(CCCCc2nnc(NC(=O)Cc3cccc(C(F)(F)F)c3F)s2)s1 [Compound 92],1000 to 10000
3,"O=C(CCc1ccccc1)Nc1nnc(CCS(=O)(=O)CCc2nnc(NC(=O)CCc3ccccc3)s2)s1 [Compound 21, N,N′-(5,5′-(2,2′-sulfonylbis(ethane-2,1-diyl))bis(1,3,4-thiadiazole-5,2-diyl))bis(3-phenylpropanamide)]",< 100
4,"O=C(Nc1nnc(CCSCCc2nnc(NC(=O)Oc3ccccc3)s2)s1)Oc1ccccc1 [Compound 1, Diphenyl (5,5′-(thiobis(ethane-2,1-diyl))bis(1,3,4-thiadiazole-5,2-diyl))dicarbamate]",1000 to 10000
5,"O=C(Cc1ccccn1)Nc1nnc(CCCCCc2nnc(NC(=O)Cc3ccccn3)s2)s1 [Compound 11, N,N′-(5,5′-(pentane-1,5-diyl)bis(1,3,4-thiadiazole-5,2-diyl))bis(2-(pyridin-2-yl)acetamide)]",100 to 500
6,CC(C)(Oc1ccc(Cl)cc1)C(=O)Nc1nnc(CCCCc2nnc(NC(=O)C(C)(C)Oc3ccc(Cl)cc3)s2)s1 [Compound 109],1000 to 10000
7,"O=C(Cc1ccccn1)Nc1nnc(CC[S+]([O-])CCc2nnc(NC(=O)Cc3ccccn3)s2)s1 [Compound 17, N,N′-(5,5′-(sulfinylbis(ethane-2,1-diyl))bis(1,3,4-thiadiazole-5,2-diyl))bis(2-(pyridin-2-yl)acetamide)]",100 to 500
8,Cc1ccc(OCC(=O)Nc2nnc(CCCCc3nnc(NC(=O)COc4ccc(C)cc4C)s3)s2)c(C)c1 [Compound 65],1000 to 10000
9,CC(CC(=O)Nc1nnc(CCCCc2nnc(NC(=O)CC(C)c3ccccc3)s2)s1)c1ccccc1 (centres unmarked) [Compound 110],1000 to 10000
10,"Cc1ccccc1CC(=O)Nc1nnc(CCCCc2nnc(NC(=O)Cc3ccccc3C)s2)s1 [Compound 114, N,N′-(5,5′-(butane-1,4-diyl)bis(1,3,4-thiadiazole-5,2-diyl))bis(2-o-tolylacetamide)]",100 to 500
11,CC(=O)Nc1nnc(CCCCc2nnc(NC(=O)Cc3ccccc3)s2)s1 [Compound 98],100 to 500
12,O=C(Cc1ccccc1)Nc1nnc(CSCc2nnc(NC(=O)Cc3ccccc3)s2)s1 [Compound 32],1000 to 10000
13,"O=C(Cc1ccc2c(c1)OCO2)Nc1nnc(CCCCc2nnc(NC(=O)Cc3ccc4c(c3)OCO4)s2)s1 [Compound 55, N,N′-(5,5′-(butane-1,4-diyl)bis(1,3,4-thiadiazole-5,2-diyl))bis(2-(benzo[d][1,3]dioxol-5-yl)acetamide)]",< 100
14,Cn1c(=O)c2c(ncn2CC(=O)Nc2nnc(CCCCc3nnc(NC(=O)Cn4cnc5c4c(=O)n(C)c(=O)n5C)s3)s2)n(C)c1=O [Compound 41],1000 to 10000
15,"COc1ccc(CC(=O)Nc2nnc(CCS(=O)(=O)CCc3nnc(NC(=O)Cc4ccc(OC)c(OC)c4)s3)s2)cc1OC [Compound 30, N,N′-(5,5′-(2,2′-sulfonylbis(ethane-2,1-diyl))bis(1,3,4-thiadiazole-5,2-diyl))bis(2-(3,4-dimethoxyphenyl)acetamide)]",< 100
16,Cc1cccc(OCC(=O)Nc2nnc(CCCCc3nnc(NC(=O)COc4cccc(C)c4)s3)s2)c1 [Compound 104],1000 to 10000
17,"c1ccc(CCNc2nnc(CCSCCc3nnc(NCCc4ccccc4)s3)s2)cc1 [Compound 9, 5,5′-(thiobis(ethane-2,1-diyl))bis(N-phenethyl-1,3,4-thiadiazol-2-amine)]",1000 to 10000
18,"O=C(Nc1nnc(CCS(=O)(=O)CCc2nnc(NC(=O)OCc3ccccc3)s2)s1)OCc1ccccc1 [Compound 19, Dibenzyl (5,5′-(sulfonylbis(ethane-2,1-diyl))bis(1,3,4-thiadiazole-5,2-diyl))dicarbamate]",< 100
19,"O=C(Cc1cccc2[nH]ccc12)Nc1nnc(CCCCc2nnc(NC(=O)Cc3cccc4[nH]ccc34)s2)s1 [Compound 123, N,N′-(5,5′-(butane-1,4-diyl)bis(1,3,4-thiadiazole-5,2-diyl))bis(2-(1H-indol-4-yl)acetamide)]",< 100

row,SMILES,IC50 [nM]
1,O=C(Cc1ccccc1)Nc1nnc(CCSCc2nnc(NC(=O)Cc3ccccc3)s2)s1 [Compound 48],< 100
2,"O=C(CCCC(=O)c1ccccc1)Nc1nnc(CCCCc2nnc(NC(=O)CCCC(=O)c3ccccc3)s2)s1 [Compound 40, N,N′-(5,5′-(butane-1,4-diyl)bis(1,3,4-thiadiazole-5,2-diyl))bis(5-oxo-5-phenylpentanamide)]",< 100
3,"Cc1cc(CC(=O)Nc2nnc(CCCCc3nnc(NC(=O)Cc4cc(C)no4)s3)s2)on1 [Compound 42, N,N′-(5,5′-(butane-1,4-diyl)bis(1,3,4-thiadiazole-5,2-diyl))bis(2-(3-methylisoxazol-5-yl)acetamide)]",100 to 500
4,"COc1ccc(CC(=O)Nc2nnc(CCCCc3nnc(NC(=O)Cc4ccc(OC)c(OC)c4)s3)s2)cc1OC [Compound 63, N,N′-(5,5′-(butane-1,4-diyl)bis(1,3,4-thiadiazole-5,2-diyl))bis(2-(3,4-dimethoxyphenyl)acetamide)]",< 100
5,"O=C(Cc1ccccn1)Nc1nnc(CCS(=O)(=O)CCc2nnc(NC(=O)Cc3ccccn3)s2)s1 [Compound 13, N,N′-(5,5′-(sulfonylbis(ethane-2,1-diyl))bis(1,3,4-thiadiazole-5,2-diyl))bis(2-(pyridin-2-yl)acetamide)]",< 100
6,"O=C(CCc1ccccc1Cl)Nc1nnc(CCCCc2nnc(NC(=O)CCc3ccccc3Cl)s2)s1 [Compound 91, N,N′-(5,5′-(butane-1,4-diyl)bis(1,3,4-thiadiazole-5,2-diyl))bis(3-(2-chlorophenyl)propanamide)]",100 to 500
7,"CC(C)(C)OC(=O)Nc1nnc(CCS(=O)(=O)CCc2nnc(NC(=O)OC(C)(C)C)s2)s1 [Compound 15, Di-tert-butyl (5,5′-(sulfonylbis(ethane-2,1-diyl))bis(1,3,4-thiadiazole-5,2-diyl))dicarbamate]",100 to 500
8,"Cc1[nH]c2ccccc2c1CC(=O)Nc1nnc(CCCCc2nnc(NC(=O)Cc3c(C)[nH]c4ccccc34)s2)s1 [Compound 116, N,N′-(5,5′-(butane-1,4-diyl)bis(1,3,4-thiadiazole-5,2-diyl))bis(2-(2-methyl-1H-indol-3-yl)acetamide)]",< 100
9,"O=C(Cc1ccccn1)Nc1nnc(CCCCc2nnc(NC(=O)Cc3ccccn3)s2)s1 [Compound 47, N,N′-(5,5′-(butane-1,4-diyl)bis(1,3,4-thiadiazole-5,2-diyl))bis(2-(pyridin-2-yl)acetamide)]",< 100
10,O=C(Cc1ccccc1)Nc1nnc(CC[S+]([O-])CCC(=O)Nc2nnc(Cc3ccccc3)s2)s1 (centres unmarked) [Compound 24],1000 to 10000
11,"CC(=O)CCCCC(=O)Nc1nnc(CCCCc2nnc(NC(=O)CCCCC(C)=O)s2)s1 [Compound 72, N,N′-(5,5′-(butane-1,4-diyl)bis(1,3,4-thiadiazole-5,2-diyl))bis(6-oxoheptanamide)]",100 to 500
12,"O=C(CCOc1ccccc1)Nc1nnc(CCCCc2nnc(NC(=O)CCOc3ccccc3)s2)s1 [Compound 111, N,N′-(5,5′-(butane-1,4-diyl)bis(1,3,4-thiadiazole-5,2-diyl))bis(3-phenoxypropanamide)]",100 to 500
13,"O=C(Nc1nnc(CCSCCc2nnc(NC(=O)OC3CCCCC3)s2)s1)OC1CCCCC1 [Compound 8, Dicyclohexyl (5,5′-(thiobis(ethane-2,1-diyl))bis(1,3,4-thiadiazole-5,2-diyl))dicarbamate]",500 to 1000
14,"O=C(Cc1c[nH]c2cccnc12)Nc1nnc(CCCCc2nnc(NC(=O)Cc3c[nH]c4cccnc34)s2)s1 [Compound 127, N,N′-(5,5′-(butane-1,4-diyl)bis(1,3,4-thiadiazole-5,2-diyl))bis(2-(1H-pyrrolo[3,2-b]pyridin-3-yl)acetamide)]",< 100
15,O=C(Nc1nnc(CCCCc2nnc(NC(=O)C3CC3)s2)s1)C1CC1 [Compound 105],1000 to 10000
16,CC(C)c1ccc(OCC(=O)Nc2nnc(CCCCc3nnc(NC(=O)COc4ccc(C(C)C)cc4)s3)s2)cc1 [Compound 79],1000 to 10000
17,"O=C(CCc1ccco1)Nc1nnc(CCCCc2nnc(NC(=O)CCc3ccco3)s2)s1 [Compound 49, N,N′-(5,5′-(butane-1,4-diyl)bis(1,3,4-thiadiazole-5,2-diyl))bis(3-(furan-2-yl)propanamide)]",100 to 500
18,"Cn1nc(CC(=O)Nc2nnc(CCCCc3nnc(NC(=O)Cc4nn(C)c5ccccc45)s3)s2)c2ccccc21 [Compound 122, N,N′-(5,5′-(butane-1,4-diyl)bis(1,3,4-thiadiazole-5,2-diyl))bis(2-(1-methyl-1H-indazol-3-yl)acetamide)]",< 100
19,O=C(Cc1ccccc1)Nc1cc(CCCCc2cc(NC(=O)Cc3ccccc3)on2)no1 [Compound 99],1000 to 10000

# Reference: US10414740B2, “Glutaminase inhibitors and method of use” (Agios Pharmaceuticals, Inc., priority 2012, dated 2019)
